From patent US20220176011A1, “SCAR REDUCING WOUND CLOSURE MATERIALS” (Lankenau Institute for Medical Research, priority 2019, published 2022)

System: HIF1a protein activity
Experiment: In vitro drug release from suture into DMEM medium, read out by HIF1a luciferase assay
Assay type: cell-based
Description: FIG. 1 is a graph plotting drug release in vitro from poly(lactic acid)/poly(lactic-co-glycolic acid (PLA/PLGA) sutures over time. Briefly, a mixture of PLA and PLA/GPLA suture was infused with 1,4-DPCA molecules during generation of the sutures. The concentration of DPCA was in all cases 5 mg/100 mg suture material as described below. The sutures, having different ratios of PLA and PLA/PLGA as described below, were tested for rate of drug release. Drug release was measured by HIF levels. The sutures were soaked in medium without serum for 24 hours and transferred to new medium for each timepoint identified on the graph. The medium was tested for HIF1a protein activity in a luciferase assay. The horizontal lines are controls as noted: at about 10000 luminescence units (LU) is a control for DMEM only; at about 18000 LU is a control for 25 μM DCPA; at about 29500 LU is a control for 50 μM DCPA; at about 39000 LU is a control for 100 μM DCPA; and at about 40500 LU is a control for 200 μM DCPA. The curve that is substantially at 10000 LU but dips below at day 12 represents a mixture of PLA and PLA/PLGA [50:50] at a ratio of 75 PLA:25 PLA/PLGA. The curve that starts below 10000 LU and increases to about 15000 LU at day 14.5 is PLA and PLA/PLGA [50:50] at a ratio of 75:25+DPCA. The curve that starts above 50000 and has a peak at day 15 above 40000 LU is PLA and PLA/PLGA[50:50] at a ratio of 50:50+DPCA. The curve that starts above 50000 LU and has a peak at day 7.5 at about 34000 LU represents PLA and PLA/PLGA [50:50] at a ratio of 75:25+DPCA.
A PLA/PGLA suture, infused with 1,4-DPCA molecules during generation of the sutures as described in Example 1 (i.e., materials are melted, DPCA added, and the final mixture cooled and pulled into sutures), was tested for rate of release of 1,4-DPCA into DMEM medium. Drug release was measured by HIF levels. The sutures were soaked in medium without serum for 24 hours and transferred to new medium for each timepoint (1 hour, 3 hours, Days 1, 2, 3, 6, 7, 8, 9, 10, 13, 14, 15, 16, 17 and 20). The medium was tested for HIF1a protein activity in a luciferase assay (Signosis, Inc) as described in ESKLA, K-L et al, Hypothermia augments stress response in mammalian cells. Free Radical Biology and Medicine, 2018 doi:10.1016/j.freeradbiomed.2018.04.571.
The results are shown in the graph at FIG. 1. The two heavy lines represented PLA/PLGA[50:50] 50:50+DPCA and PLA/PLGA[50:50] 75:25+DPCA are shown releasing the drug after one hour in the medium up to about 15 days in the medium after which the drug detection falls under the DMEM control.

SMILES: O=C(O)c1c[nH]c2c(ccc3cccnc32)c1=O [DCPA, 1,4-dihydrophenonthrolin-4-one-3-carboxylic acid]
- luminescence (HIF1a luciferase assay), control line (25 μM free drug control): about 18000 LU
- luminescence (HIF1a luciferase assay), control line (50 μM free drug control): about 29500 LU
- luminescence (HIF1a luciferase assay), control line (100 μM free drug control): about 39000 LU
- luminescence (HIF1a luciferase assay), control line (200 μM free drug control): about 40500 LU
